From PubChem BioAssay AID2060900 (Molecular Pharmacology Branch, DTP, NCI, 2025)
One block for each compound: values may come before it.

Tested on: 521955-158-R2-J5-PDC complex spheroids, viability
Experiment: Anticancer human tumor 521955-158-R2-J5-PDC patient-derived pancreatic carcinoma cell line growth inhibition [RAS]
Conditions: for IC50: curve of first compound; for viability, T/C: stronger effect = lower value
Procedure, shortened: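 Agents were tested in combination matrices in half-log decrements from a top concentration at or near clinical Cmax (10 microM if undetermined). Targets were multi-cell spheroids of tumour lines plus HUVEC and MSC stromal cells.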

[1] = second compound 0.000949 µM, first compound 0.0316 µM
[2] = second compound 0.000949 µM, first compound 0.1 µM
[3] = second compound 0.000949 µM, first compound 0.316 µM
[4] = second compound 0.000949 µM, first compound 1 µM
[5] = second compound 0.003 µM, first compound 0.0316 µM
[6] = second compound 0.003 µM, first compound 0.1 µM
[7] = second compound 0.003 µM, first compound 0.316 µM
[8] = second compound 0.003 µM, first compound 1 µM
[9] = second compound 0.00949 µM, first compound 0.0316 µM
[10] = second compound 0.00949 µM, first compound 0.1 µM
[11] = second compound 0.00949 µM, first compound 0.316 µM
[12] = second compound 0.00949 µM, first compound 1 µM
[13] = second compound 0.03 µM, first compound 0.0316 µM
[14] = second compound 0.03 µM, first compound 0.1 µM
[15] = second compound 0.03 µM, first compound 0.316 µM
[16] = second compound 0.03 µM, first compound 1 µM
[17] = second compound 0.0949 µM, first compound 0.0316 µM
[18] = second compound 0.0949 µM, first compound 0.1 µM
[19] = second compound 0.0949 µM, first compound 0.316 µM
[20] = second compound 0.0949 µM, first compound 1 µM
[21] = second compound 0.3 µM, first compound 0.0316 µM
[22] = second compound 0.3 µM, first compound 0.1 µM
[23] = second compound 0.3 µM, first compound 0.316 µM
[24] = second compound 0.3 µM, first compound 1 µM
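Further: compound exposure lasted seven days before the viability read.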
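Wherever viability, T/C is given: spheroids also contain HUVEC endothelial cells and mesenchymal stem cells as stroma.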

IC50 (second compound 0.000949 µM): < 31.6 nM
IC50 (second compound 0.003 µM): < 31.6 nM
IC50 (second compound 0.00949 µM): < 31.6 nM
IC50 (second compound 0.03 µM): < 31.6 nM
IC50 (second compound 0.0949 µM): < 31.6 nM
IC50 (second compound 0.3 µM): < 31.6 nM
Structure (SMILES): CC(=O)OC12COC1CC(O)C1(C)C(=O)C(O)C3=C(C)C(OC(=O)C(O)C(NC(=O)OC(C)(C)C)c4ccccc4)CC(O)(C(OC(=O)c4ccccc4)C21)C3(C)C (stereo unspecified) + CCn1c(-c2cc(N3CCN(C)CC3)cnc2C(C)OC)c2c3cc(ccc31)-c1csc(n1)CC(NC(=O)C1CC1C)C(=O)N1CCCC(N1)C(=O)OCC(C)(C)C2
viability, T/C [1]: 19.7%
viability, T/C [2]: 23.3%
viability, T/C [3]: 20.3%
viability, T/C [4]: 24.3%
viability, T/C (second compound 0.000949 µM, first compound 3.16 µM): 29.3%
viability, T/C (second compound 0.000949 µM, first compound 10 µM): 30.7%
viability, T/C [5]: 25.7%
viability, T/C [6]: 21.4%
viability, T/C [7]: 23.5%
viability, T/C [8]: 28.9%
viability, T/C (second compound 0.003 µM, first compound 3.16 µM): 23.7%
viability, T/C (second compound 0.003 µM, first compound 10 µM): 26.8%
viability, T/C [9]: 20.8%
viability, T/C [10]: 21.7%
viability, T/C [11]: 20.4%
viability, T/C [12]: 19.8%
viability, T/C (second compound 0.00949 µM, first compound 3.16 µM): 18.9%
viability, T/C (second compound 0.00949 µM, first compound 10 µM): 16.6%
viability, T/C [13]: 12.9%
viability, T/C [14]: 12.8%
viability, T/C [15]: 11.8%
viability, T/C [16]: 16.9%
viability, T/C (second compound 0.03 µM, first compound 3.16 µM): 12.7%
viability, T/C (second compound 0.03 µM, first compound 10 µM): 9.64%
viability, T/C [17]: 7.98%
viability, T/C [18]: 9.42%
viability, T/C [19]: 11.9%
viability, T/C [20]: 8.27%
viability, T/C (second compound 0.0949 µM, first compound 3.16 µM): 12.1%
viability, T/C (second compound 0.0949 µM, first compound 10 µM): 7.89%
viability, T/C [21]: 7.22%
viability, T/C [22]: 8.9%
viability, T/C [23]: 7.91%
viability, T/C [24]: 11.6%
viability, T/C (second compound 0.3 µM, first compound 3.16 µM): 10.6%
viability, T/C (second compound 0.3 µM, first compound 10 µM): 7.75%

IC50 (second compound 0.000949 µM): < 0.949 nM
IC50 (second compound 0.003 µM): < 0.949 nM
IC50 (second compound 0.00949 µM): < 0.949 nM
IC50 (second compound 0.03 µM): < 0.949 nM
IC50 (second compound 0.0949 µM): < 0.949 nM
IC50 (second compound 0.3 µM): < 0.949 nM
Structure (SMILES): CCc1c2c(nc3ccc(O)cc13)-c1cc3c(c(=O)n1C2)COC(=O)[C@]3(O)CC + CCn1c(-c2cc(N3CCN(C)CC3)cnc2C(C)OC)c2c3cc(ccc31)-c1csc(n1)CC(NC(=O)C1CC1C)C(=O)N1CCCC(N1)C(=O)OCC(C)(C)C2
viability, T/C (second compound 0.000949 µM, first compound 0.000949 µM): 30.3%
viability, T/C (second compound 0.000949 µM, first compound 0.003 µM): 23.1%
viability, T/C (second compound 0.000949 µM, first compound 0.00949 µM): 20.6%
viability, T/C (second compound 0.000949 µM, first compound 0.03 µM): 6.46%
viability, T/C (second compound 0.000949 µM, first compound 0.0949 µM): 5.57%
viability, T/C (second compound 0.000949 µM, first compound 0.3 µM): 4.03%
viability, T/C (second compound 0.003 µM, first compound 0.000949 µM): 30.4%
viability, T/C (second compound 0.003 µM, first compound 0.003 µM): 26.8%
viability, T/C (second compound 0.003 µM, first compound 0.00949 µM): 19.9%
viability, T/C (second compound 0.003 µM, first compound 0.03 µM): 10.5%
viability, T/C (second compound 0.003 µM, first compound 0.0949 µM): 8.02%
viability, T/C (second compound 0.003 µM, first compound 0.3 µM): 5.19%
viability, T/C (second compound 0.00949 µM, first compound 0.000949 µM): 26.2%
viability, T/C (second compound 0.00949 µM, first compound 0.003 µM): 26%
viability, T/C (second compound 0.00949 µM, first compound 0.00949 µM): 19.6%
viability, T/C (second compound 0.00949 µM, first compound 0.03 µM): 9.8%
viability, T/C (second compound 0.00949 µM, first compound 0.0949 µM): 10.9%
viability, T/C (second compound 0.00949 µM, first compound 0.3 µM): 5.95%
viability, T/C (second compound 0.03 µM, first compound 0.000949 µM): 19.4%
viability, T/C (second compound 0.03 µM, first compound 0.003 µM): 21.2%
viability, T/C (second compound 0.03 µM, first compound 0.00949 µM): 13.2%
viability, T/C (second compound 0.03 µM, first compound 0.03 µM): 8.77%
viability, T/C (second compound 0.03 µM, first compound 0.0949 µM): 10.2%
viability, T/C (second compound 0.03 µM, first compound 0.3 µM): 5.37%
viability, T/C (second compound 0.0949 µM, first compound 0.000949 µM): 11.3%
viability, T/C (second compound 0.0949 µM, first compound 0.003 µM): 14.1%
viability, T/C (second compound 0.0949 µM, first compound 0.00949 µM): 8.2%
viability, T/C (second compound 0.0949 µM, first compound 0.03 µM): 6.36%
viability, T/C (second compound 0.0949 µM, first compound 0.0949 µM): 5.92%
viability, T/C (second compound 0.0949 µM, first compound 0.3 µM): 2.8%
viability, T/C (second compound 0.3 µM, first compound 0.000949 µM): 8.86%
viability, T/C (second compound 0.3 µM, first compound 0.003 µM): 10.8%
viability, T/C (second compound 0.3 µM, first compound 0.00949 µM): 8.12%
viability, T/C (second compound 0.3 µM, first compound 0.03 µM): 5.86%
viability, T/C (second compound 0.3 µM, first compound 0.0949 µM): 6.11%
viability, T/C (second compound 0.3 µM, first compound 0.3 µM): 2.57%

IC50 (second compound 0.000949 µM): < 3.16 nM
IC50 (second compound 0.003 µM): < 3.16 nM
IC50 (second compound 0.00949 µM): < 3.16 nM
IC50 (second compound 0.03 µM): < 3.16 nM
IC50 (second compound 0.0949 µM): < 3.16 nM
IC50 (second compound 0.3 µM): < 3.16 nM
Structure (SMILES): Nc1ccn(C2OC(CO)C(O)C2(F)F)c(=O)n1 (stereo unspecified) + CCn1c(-c2cc(N3CCN(C)CC3)cnc2C(C)OC)c2c3cc(ccc31)-c1csc(n1)CC(NC(=O)C1CC1C)C(=O)N1CCCC(N1)C(=O)OCC(C)(C)C2
viability, T/C (second compound 0.000949 µM, first compound 0.00316 µM): 35.3%
viability, T/C (second compound 0.000949 µM, first compound 0.01 µM): 29%
viability, T/C [1]: 30.2%
viability, T/C [2]: 21%
viability, T/C [3]: 22.9%
viability, T/C [4]: 12%
viability, T/C (second compound 0.003 µM, first compound 0.00316 µM): 39%
viability, T/C (second compound 0.003 µM, first compound 0.01 µM): 33.4%
viability, T/C [5]: 36%
viability, T/C [6]: 28%
viability, T/C [7]: 20.5%
viability, T/C [8]: 17.2%
viability, T/C (second compound 0.00949 µM, first compound 0.00316 µM): 32.2%
viability, T/C (second compound 0.00949 µM, first compound 0.01 µM): 28.8%
viability, T/C [9]: 29.9%
viability, T/C [10]: 21.4%
viability, T/C [11]: 19.8%
viability, T/C [12]: 20.6%
viability, T/C (second compound 0.03 µM, first compound 0.00316 µM): 22.5%
viability, T/C (second compound 0.03 µM, first compound 0.01 µM): 20.6%
viability, T/C [13]: 18.3%
viability, T/C [14]: 19.4%
viability, T/C [15]: 13.7%
viability, T/C [16]: 12.7%
viability, T/C (second compound 0.0949 µM, first compound 0.00316 µM): 10.2%
viability, T/C (second compound 0.0949 µM, first compound 0.01 µM): 11.2%
viability, T/C [17]: 13.3%
viability, T/C [18]: 12.4%
viability, T/C [19]: 9.85%
viability, T/C [20]: 7.8%
viability, T/C (second compound 0.3 µM, first compound 0.00316 µM): 13.4%
viability, T/C (second compound 0.3 µM, first compound 0.01 µM): 9.3%
viability, T/C [21]: 11.2%
viability, T/C [22]: 11.1%
viability, T/C [23]: 9.17%
viability, T/C [24]: 11.8%
